Measured values as given in PubChem BioAssay (NCI).
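A five-concentration, 48-hour dose response in 96-well plates underlies each endpoint, interpolated linearly between surrounding concentrations. TGI denotes the concentration required for complete inhibition of growth.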

Columns and labels:
Assay in all cases: growth of human tumour cells (NCI), 48 h
[1] = tested on: OVCAR-8 ovarian
[2] = tested on: HL-60(TB) leukemia
[3] = tested on: HT29 colon
[4] = tested on: CAKI-1 renal
[5] = tested on: UACC-62 melanoma
[6] = tested on: SK-MEL-28 melanoma
[7] = tested on: SK-MEL-5 melanoma
[8] = tested on: SF-539 CNS
[9] = tested on: NCI-H522 lung
[10] = tested on: CCRF-CEM leukemia
[11] = tested on: NCI-H460 lung

In the case of `C=C(C)CC1(O)C(=O)C(OCC)=C1OCC` (centres undefined), the TGI [1] is reported as over 100 µM, the TGI [2] is reported as over 100 µM and the TGI [3] is reported as over 100 µM. For the same molecule, the TGI [4] was over 100 µM, the TGI [5] was over 100 µM and the TGI [6] was over 100 µM. For the same molecule, the TGI [7] was over 100 µM, the TGI [8] was over 100 µM and the TGI [9] was over 100 µM. For the same molecule, the TGI [10] was over 100 µM and the TGI [11] was over 100 µM.

Work on `CC(=O)NNc1nc(C)c(C(/C=C/c2ccc([N+](=O)[O-])cc2)=N/NC(N)=S)s1` yielded a TGI [1] of over 100 µM, a TGI [2] of over 100 µM and a TGI [3] of over 100 µM. The TGI [4] was over 100 µM, the TGI [5] was over 100 µM and the TGI [6] was over 100 µM. The TGI [7] was over 100 µM, the TGI [8] was over 100 µM and the TGI [9] was over 100 µM. The TGI [10] was over 100 µM and the TGI [11] was over 100 µM.

With `CCCCc1ccc(Nc2nc(=S)c3[nH]cnc3[nH]2)cc1` the TGI [2] was 57.8 µM, the TGI [3] was 22 µM and the TGI [4] was 92.6 µM. For the same molecule, the TGI [5] was 35.1 µM, the TGI [6] was over 100 µM and the TGI [7] was 25.5 µM. For the same molecule, the TGI [8] was 48 µM, the TGI [9] was 22.8 µM and the TGI [10] was 47.9 µM. It also gave a TGI [11] of over 100 µM.

`Brc1c(C#CCC(c2ccccc2)(c2ccccc2)c2ccccc2)ccc(C#CCC(c2ccccc2)(c2ccccc2)c2ccccc2)c1Br` was tested, and the TGI [1] was over 100 µM, the TGI [2] was over 100 µM and the TGI [3] was over 100 µM. It also gave a TGI [4] of over 100 µM, a TGI [5] of over 100 µM and a TGI [6] of over 100 µM. For the same molecule, the TGI [7] was over 100 µM, the TGI [8] was over 100 µM and the TGI [9] was over 100 µM. For the same molecule, the TGI [10] was over 100 µM and the TGI [11] was over 100 µM.

For `C#CCN(N=O)C(=O)NC(CCCNC(=O)OCc1ccccc1)C(=O)OCc1ccccc1` (centres undefined), the TGI [1] was over 100 µM, the TGI [2] was 42.9 µM and the TGI [3] was over 100 µM. The TGI [4] was 47.2 µM, the TGI [5] was over 100 µM and the TGI [6] was over 100 µM. For the same molecule, the TGI [7] was over 100 µM, the TGI [8] was over 100 µM and the TGI [9] was 27.2 µM. For the same molecule, the TGI [10] was 52 µM and the TGI [11] was over 100 µM.

`Nc1ncc(Cl)c(NCC2(CO)CC(CCc3ccccc3)C2)n1` (centres undefined) showed a TGI [1] of over 100 µM, a TGI [2] of over 100 µM and a TGI [3] of over 100 µM. For the same molecule, the TGI [4] was over 100 µM, the TGI [5] was over 100 µM and the TGI [6] was over 100 µM. The TGI [7] was over 100 µM, the TGI [8] was over 100 µM and the TGI [9] was over 100 µM. It also gave a TGI [10] of over 100 µM and a TGI [11] of over 100 µM.

Work on `COc1cc(C)cc2c1c(=O)c1ccccc1n2C` yielded a TGI [1] of over 100 µM, a TGI [2] of 83.3 µM and a TGI [3] of over 100 µM. It also gave a TGI [4] of over 100 µM, a TGI [5] of 62.5 µM and a TGI [6] of over 100 µM. For the same molecule, the TGI [7] was 51.3 µM, the TGI [8] was 38.4 µM and the TGI [9] was over 100 µM. For the same molecule, the TGI [10] was 68.5 µM and the TGI [11] was over 100 µM.

`Cc1nc(C(N)=S)sc1C(/C=C/c1ccc(Cl)c(Cl)c1)=N/NC(C)(C)C` gave a TGI [1] of over 100 µM, a TGI [2] of over 100 µM and a TGI [3] of over 100 µM. The TGI [4] was over 100 µM, the TGI [5] was over 100 µM and the TGI [6] was over 100 µM. For the same molecule, the TGI [7] was over 100 µM, the TGI [8] was over 100 µM and the TGI [9] was over 100 µM. The TGI [10] was over 100 µM and the TGI [11] was over 100 µM.

`O=C(O)CNc1ccc(C(=O)O)cc1` showed a TGI [1] of over 100 µM, a TGI [2] of over 100 µM and a TGI [3] of over 100 µM. It also gave a TGI [4] of over 100 µM, a TGI [5] of over 100 µM and a TGI [6] of over 100 µM. For the same molecule, the TGI [7] was over 100 µM, the TGI [8] was over 100 µM and the TGI [9] was over 100 µM. It also gave a TGI [10] of over 100 µM and a TGI [11] of over 100 µM.

Work on `C=C(C)C1CC/C(C)=C/CC[C@]2(C)O[C@H]2CC/C(COC(C)=O)=C\[C@@H]1O` (some centres undefined) yielded a TGI [1] of over 50 µM, a TGI [2] of over 50 µM and a TGI [3] of over 50 µM. For the same molecule, the TGI [4] was over 50 µM, the TGI [5] was over 50 µM and the TGI [6] was over 50 µM. The TGI [7] was over 50 µM, the TGI [8] was over 50 µM and the TGI [9] was over 50 µM. The TGI [10] was over 50 µM and the TGI [11] was over 50 µM.
